Measured values published in US10509041B2, “Glucose derivative, and cell imaging method and imaging agent using said derivative” (HIROSAKI UNIVERSITY, priority 2014, dated 2019).

Assays:
[1] = system: MIN6 cell masses (spheroids); experiment: Fluorescent imaging of tumor cell masses (spheroids) of MIN6 cells with mixed fluorescent glucose derivative solutions; format: cell-based, mouse; details: 3 minutes, 6 minutes after start of washout
Procedure: A fluorescent mixed solution containing 100 μM CDG, 100 μM 2-NBDLG, and 20 μM 2-TRLG (CDG/2-NBDLG/2-TRLG) was administered at 37° C. for 3 minutes to MIN6 cell masses (spheroids) at culture day 17, and fluorescent imaging was conducted.
10 μL of a culture solution containing MIN6 cells suspended at a density of 6×10^4 cells/mL was added dropwise onto each glass cover slip, and then, the glass cover slip was left standing for 40 minutes in an incubator for fixation to the glass surface. The cells were cultured by the addition of 3 mL of a culture solution (600 cells/slip). Spheroids were formed by continuing the culture for 15 to 17 days. Half the amount of the culture solution was replaced with a fresh one once every three days.
The MIN6 cells used were cells kindly provided by professor Junichi Miyazaki (Osaka University) and subcultured 6 to 10 times. Half the amount of the culture solution was replaced with a fresh one once every two days.
13.4 g of high glucose-containing Dulbecco's modified Eagle's Medium (DMEM-HG) (Sigma-Aldrich, #D5648), 3.4 g of NaHCO3, and 5 μL of 2-mercaptoethanol were dissolved in 1 L of ultrapure water, and the pH of the solution was adjusted to 7.30 to 7.35 in a CO2 incubator of 37° C. The culture solution was supplemented with fetal bovine serum (Hyclone, Cat# SH30070.03) at a final concentration of 10% and penicillin-streptomycin at a final concentration of 0.5%.
The whole amount of the 0.5 mg CDG vial was recovered using 0.73 mL in total of 10% DMSO and dissolved by addition to 7.0 ml of a KRB solution for image acquisition according to the method described in Non Patent Literature 2.
The whole amount of one 0.5 mg 2-NBDLG vial was dissolved in 7.3 mL of a KRB solution for image acquisition.
The CDG solution and the 2-NBDLG solution were mixed at a ratio of 1:1. The whole amount of the 0.2 mg 2-TRLG vial was recovered using 130 μL in total of DMSO and mixed with 13 ml of the CDG+2-NBDLG mixed solution according to the method described in Non Patent Literature 2 (final concentration: 100 μM CDG+100 μM 2-NBDLG+20 μM 2-TRLG mixed solution). […]
The glass cover slip with the cultured MIN6 cells was transferred into the KRB solution for image acquisition in a perfusion chamber loaded on a stage of a fluorescence microscope, followed by measurement. […]
The KRB solution for image acquisition was warmed in advance in an aluminum syringe heater and supplied to the perfusion chamber through hydrostatic pressure. […] Immediately before being introduced to the perfusion chamber, the solution was rewarmed via an inline heater so that the actually measured temperature of the perfusate in an observation region in the chamber was adjusted to 36±1° C. […]

[2] = system: neuronal cells of the substantia nigra pars reticulate of the midbrain; experiment: Fluorescent imaging of acutely isolated normal neuronal cells; format: cell-based, mouse; details: 3 minutes, 8 minutes after start of washout
Procedure: The whole amount of the 0.5 mg CLG vial was recovered using 0.73 mL in total of 10% DMSO and dissolved (100 μM) by addition to 14.79 ml of a HEPES solution for image acquisition according to the method described in Non Patent Literature 2. […]
150 mM NaCl, 5 mM KCl, 1 mM MgCl2, 2 mM CaCl2, and 10 mM HEPES (the pH of the solution was adjusted to 7.4 with a 1 M tris(2-amino-2-hydroxymethyl-1,3-propanediol) solution). The concentration of glucose was set to 10 mM. 0.1 mM carbenoxolone (Sigma-Aldrich, #C4790) was added thereto for the purpose of inhibiting the entrance and exit of fluorescently labeled glucose by way of gap junction/hemichannel. This HEPES solution for image acquisition was used for preparing the CLG solution and the mixed solution with the additional fluorescent sugar derivative.
Neuronal cells […] to the method described in the previous reports of the inventors (WO2010/16587 (Patent Literature 2)) and (WO2012/133688 (Patent Literature 4)) and attached to each glass cover slip coated with poly-L-lysine. Then, the glass cover slip was transferred into the HEPES solution for image acquisition in a perfusion chamber loaded on a stage of a fluorescence microscope, followed by observation.
A silicon plate of 1 mm thickness bored to have a streamline-shaped hole (10 mm wide x 35 mm long) was placed via cover glass onto an aluminum heating control platform (Warner Instruments) having a round hole (diameter: 18 mm) for an objective lens at the bottom, and allowed to be in close contact with the cover glass.
The HEPES solution for image acquisition was warmed in advance in an aluminum syringe heater and supplied to the perfusion chamber through hydrostatic pressure. The perfusion rate was adjusted to 1.3±0.2 mL/min using a flow rate adjuster. Immediately before being introduced to the perfusion chamber, the solution was rewarmed via an inline heater so that the actually measured temperature of the perfusate in an observation region in the chamber was adjusted to 32.5±1° C. The CLG/2-TRLG mixed solution was able to be supplied in the same way as above and was switched with the HEPES solution for image acquisition using an electromagnetic valve capable of controlling the opening and closing of the channel. The solution was removed using a vacuum pump capable of controlling suction pressure.
The fluorescence microscope used was NIKON ECLIPS-Ti, and images were acquired with a CCD camera Retiga 2000R.
CLG and 2-TRLG were each detected using the following filter cassette.
Excitation 360/40 nm, Dichroic mirror 400 nm, Emission 460/50 nm.
Excitation 567/15 nm, Dichroic mirror 593 nm, Emission 593 nm Long pass.
The objective lens used in this method was ×20 dry lens (Nikon Plan S Fluor). The images were acquired at 1600×1200 pixels. […]

SMILES: O=c1ccc2ccc(NC3C(O)OC(CO)[C@H](O)[C@H]3O)cc2o1 (stereo partly drawn) [CLG, 2-deoxy-2-(2-oxo-2H-chromen-7-yl)amino-L-glucose]
- uptake into cells of MIN6 spheroids, intracellular localization ([1]; 100 μM CLG+100 μM 2-NBDLG+20 μM 2-TRLG mixed solution, culture day 15): strongly taken not only into the cytoplasm but into the nucleus
- uptake into normal neuronal cells ([2]; 100 μM CLG+20 μM 2-TRLG mixed solution, 21-day-old mouse): not observed

SMILES: O=c1ccc2ccc(NC3C(O)OC(CO)[C@@H](O)[C@@H]3O)cc2o1 (stereo partly drawn) [CDG, 2-deoxy-2-(2-oxo-2H-chromen-7-yl)amino-D-glucose]
- uptake into cells of MIN6 spheroids, intracellular localization ([1]; 100 μM CDG+100 μM 2-NBDLG+20 μM 2-TRLG mixed solution, culture day 17): not only taken into the cytoplasm but unexpectedly taken into the nucleus
- uptake into normal neuronal cells ([2]; 100 μM CDG+20 μM 2-TRLG mixed solution, 14-day-old mouse): taken into the normal neuronal cells
